Experimental data reported in patent publication EP0851902B1, “METHOD FOR COATING” (F2 Chemicals Ltd., priority 1995, dated 1997).

Experiment: Water solubility (typical physical properties, Table 1)
Format: physicochemical
Settings: components of the 2% w/w solution of resin in perfluorohexane
Experimental: A solution of a fluoropolymer resin, prepared in accordance with details given in PCT Patent Application No. WO 94/05498 (and documents referred to therein), was prepared by dissolving sufficient of it, at room temperature in perfluorohexane ("FLUTEC" PP-1 from BNFL Fluorochemicals Ltd) to make a 2% w/w solution.

FC(F)(F)C(F)(F)C(F)(F)C(F)(F)C(F)(F)C(F)(F)F [SOLVENT, perfluorohexane]
Water Solubility: Insoluble
